Assay results taken from US20080305040A1, “In Vivo or in Vitro Method For Detecting Amyloid Deposits Having at Least One Amyloidogenic Protein” (UNIVERSITY OF PITTSBURGH, priority 2005, published 2008).

Test system: amyloid deposits in heart tissue, lung tissue, bladder tissue, lymph node tissue and bone from a subject with AL amyloidosis
Test: Imaging of tissues from AL amyloidosis subject: staining of paraffin sections, viewed with a UV filter set
Format: binding
Conditions: 100 nM stain, 60 min, deparaffinized paraffin sections from a subject with AL amyloidosis, FIG. 1
Method: Paraffin sections of heart, lung, bladder, lymph node and bone from a subject with AL amyloidosis were deparaffinized in xylene and stained with 100 nM X-34 [Styren et al. J Histochem Cytochem 48:1223-1232 (2000)] in 20% ethanol/80% 150 mM Tris Buffer (pH 7.4) or 100 nM 2-(4′-methylaminophenyl)-6-cyanobenzothiazole (6-CN-BTA-1) [Mathis et al. J Med Chem 46:2740-2754 (2003)] in PBS (pH 7.4) for 60 min followed by a brief, 5 second wash in water followed by coverslipping and viewing with an UV filter set (FIG. 1).

SMILES | binding to amyloid deposits in heart tissue, lung tissue, bladder tissue, lymph node tissue and bone
CNc1ccc(-c2nc3ccc(C#N)cc3s2)cc1 [Example 6-CN-BTA-1, 2-(4′-methylaminophenyl)-6-cyanobenzothiazole] | binding
O=C(O)c1cc(/C=C/c2ccc(/C=C/c3ccc(O)c(C(=O)O)c3)cc2)ccc1O [Example X-34] | binding
